Common to all, as to assay type: cell-based
Test [1] deals with mouse melanoma cells [쥐의 멜라노마 세포(B-16 mouse melanoma cell)]. As to the kind of experiment: Inhibition of melanin production in B-16 mouse melanoma cells. The note with it: relative to control; for inhibition rate (melanin production): 3 days, absorbance at 400 nm per 10^6 cells, n = 3.
Test [2] has as its system sulfated glycosaminoglycan [황산화 글리코사미노글리칸], human fibroblast [인간 유래 섬유아세포]. In words: Sulfated glycosaminoglycan synthesis in human fibroblasts (Blyscan kit). Conditions: 24 h; for sulfated glycosaminoglycan production amount: n = 4.
The next test has as its system HAS-3. As to the kind of experiment: HAS-3 mRNA expression in human keratinocytes (real time PCR). Conditions: Keratinocyte, 24 h, untreated negative control = 100%, GAPDH reference, n = 4, read-out: HAS-3 expression amount. In general terms: In qPCR the cycle at which signal appears reflects the starting amount.
The subject of the next test is HAS-2. In words: HAS-2 mRNA expression in human keratinocytes (real time PCR). The note with it: Keratinocyte, 24 h, untreated negative control = 100%, GAPDH reference, n = 4, read-out: HAS-2 expression amount.
In test [3] the test system is collagen type I [콜라겐 타입 I], human fibroblast [인간 유래 섬유아세포]. As to the kind of experiment: Collagen type I synthesis in human fibroblasts (PICP EIA kit). Conditions: 48 h, n = 4.

Here are results for three compounds from patent publication KR20170075293A, “피부 개선용 조성물” (주식회사 엘지생활건강, priority 2015, dated 2017).

With `OC[C@H]1O[C@@H](Oc2ccc(O)cc2)[C@H](O)[C@@H](O)[C@@H]1O` [알부틴, Arbutin, reference compound], in test [1] (200 ㎍/ml), the “inhibition rate (melanin production)” value is on record as 31.3%.
Take `COc1cc2ccc(=O)oc2c(OC)c1O` [이소프락시딘, Isofraxidin]: the “sulfated glycosaminoglycan production amount” value in test [2] (1 ㎍/ml) is 0.50 ng/mL; in test [2] (10 ㎍/ml), 1.64 ng/mL; in test [2] (20 ㎍/ml), 2.98 ng/mL. Further, the activation at 20 µg/mL in test [2] (Homo sapiens, Fibroblast, 20 ㎍/ml, relative to untreated control (0.46 ng/ml), n = 4, read-out: sulfated glycosaminoglycan production increase rate) was determined as 548%. In addition, the figures for the activity at 1 ppm in the test on HAS-3 (1 ppm) and in the test with HAS-2 (1 ppm) were 126% and 122%, respectively. For the same compound, the activity at 10 ppm turned out to be 151% in the test with HAS-3 (10 ppm) and 135% in the test on HAS-2 (10 ppm). The “inhibition rate (melanin production)” value in test [1] (1 ㎍/ml) came to 29.1%; in test [1] (10 ㎍/ml), 34.9%. For the same compound, the “inhibition rate of melanin production (summary statement)” value in test [1] (concentration not given) is reported as no less than 25%. Moreover, the collagen production amount in test [3] (10 ㎍/ml) worked out at 304 ng/mL; in test [3] (20 ㎍/ml) it was 370 ng/mL.
For the compound `N[C@H]1C(O)O[C@H](CO)[C@@H](O)[C@@H]1O` (stereo partly shown) [글루코사민, reference compound], the activity at 100 ppm in the test with HAS-3 (100 ppm) is 125%; with HAS-2 (100 ppm) it was 114%.
